“And” between values parts separate entries of the source, which are not always exact repeats. Equal entries are not always repeated.
Legend:
Type in all cases: physicochemical
[1] = Kinematic viscosity with capillary Cannon-Fenske viscometers; Viscosity Index calculated per ASTM D2270; conditions: for Viscosity Index: calculated per ASTM D2270 from viscosities at 40°C and 100°C; for Viscosity, mm^2/s at 40°C: kinematic viscosity at 40°C; for Viscosity, mm^2/s at 100°C: kinematic viscosity at 100°C
Protocol: Kinematic viscosities at 40°C and 100°C were measured using capillary Cannon-Fenske viscometers per ASTM […]. Viscosity Index (the value, describing the rate of thinning with increasing temperature) was calculated per ASTM D2270.

[2] = Pour point and cloud point, cooling regime of ASTM D97; conditions: for Cloud point, °C: visual inspection during the same run; for low temperature fluidity: result in words
Protocol: Pour points and cloud points were determined using the same thermal cooling regime, as instructed by ASTM D97. The sample sizes were 5 to 15 mL during the measurements.
Cloud points were determined during the same run by visual inspection of the sample appearance at low temperature. The samples were removed from the freezer every 3°C for visual inspection and, if cloudy, meniscus movement with inversion. The pour point resembled the last measurement, at which the meniscus boundary was still moving within 5 seconds of horizontal inversion. All samples were tested in duplicate.
In engine oils and hydraulic fluids, low temperature fluidity is primarily determined by pour points [ASTM D97]. Generally, pour points below -30°C are considered sufficient. Some polymer additives, e.g. "Pour Point Depressants" (PPD), are able to improve low temperature fluidity. […] Therefore, initially pour points and cloud points [ASTM D2500 "Standard Test Method for Cloud Point of Petroleum Products and Liquid Fuels"] of α-ω dibasic esters were evaluated and shown in Table 4.

[3] = Thin film test, volatile losses (500 µm oil film on steel coupon, forced-draft oven, gravimetric); conditions: 500 µm thick films at 120°C
Text: (§1) The exact procedure, used here, has been described in detail by Stoncius, A. et al. in "Volatiles from Thin Film Degradation of Bio-based, Synthetic and Mineral Basestocks", published in Industrial Lubrication & Tribology, 2013, 65 (3) 209-215, 2013, Emerald Group Publishing Edition or by Brazinskiene, D. et al. in "Ester Basestock Vaporisation from Thin Oil Films", published in Lubrication Science, DOI: 10.1002/ls.1372, pp 1-17, 2017, Wiley Edition.
(§2) Briefly, an oil film of 500 µm thickness was coated on steel coupon and heated at given temperature for specific duration in a forced-draft oven. Afterwards, the volatile losses and insoluble residues were measured gravimetrically.
As discussed in the prior-art review, volatility can be successfully evaluated in a thin film test as described by Stoncius, A. et al. in "Volatiles from Thin Film Degradation of Bio-based, Synthetic and Mineral Basestocks" published in Industrial Lubrication & Tribology, 2013, 65 (3) 209-215, Emerald Group Publishing Edition or by Brazinskiene, D. et al. in "Ester Basestock Vaporisation from Thin Oil Films" published in Lubrication Science, DOI: 10.1002/ls.1372, pp 1-17, 2017, Wiley Edition. This thin-film method is much better suited for hydraulic fluid applications than NOACK or other tests, which employ 250°C or similar temperatures, related to engine oil applications. Also, the above method accounts for longer term decomposition reactions due to exposure to metal surfaces and oxidation, which is prevalent in hydraulic applications. Therefore, using the thin-film method short-term vapor losses were measured after 16 hrs and decomposition trends were compared after 36 hrs of testing. Heating temperature of 120°C was selected to compare thin films of α,ω dibasic esters with commercial basestocks. Table 5. Volatile emissions, % w/w from 500 µm thick films of α-ω dibasic esters and commercial basestocks at 120°C

[4] = Thin film test, oxidative stability (time to insoluble residues and to solidification); conditions: 500 µm thick films at 120°C; for Vapor loss at solidification: at the duration of full film solidification
Text: as §1, §2
Therefore, thin films of commercial basestocks and α-ω dibasic esters were compared by exposing their thin films to 120°C as described by Stoncius, A. et al. in "Volatiles from Thin Film Degradation of Bio-based, Synthetic and Mineral Basestocks" published in Industrial Lubrication & Tribology, 2013, 65 (3), 209-215, Emerald Group Publishing Edition or by Brazinskiene, D. et al. in "Ester Basestock Vaporisation from Thin Oil Films" published in Lubrication Science, DOI: 10.1002/ls.1372, pp 1-17, 2017, Wiley Edition.
The thin-film method determines how resistant oil is against formation of insoluble residues during oxidation. Degradation durations until initial formation of solid residues and complete solidification directly relate to oxidative stability.

[5] = Solubility of lubricant additives in the basestocks
Protocol: Several typical lubricant additives have been tested for solubility in α-ω dibasic esters of 2-ethyl hexanol 26U18 and 26S12 as well as commercial basestock 350N. The additives were mixed in at temperatures of 50°C or lower and held for longer than a week at room temperature. Table 7. Solubility of lubricant additives, dissolved in α-ω dibasic esters and commercial basestocks
The additives were selected to represent different chemical categories: soaps, heterocycles, phosphorous derivatives, polymers, etc. Most of these additives are designed to be dissolved in paraffinic mineral oils and synthetic lubricants with some heating. It is often thought that esters are better solvents than mineral oils or synthetic hydrocarbons like poly α-olefins. Therefore, the tested concentrations were much higher than additive proportions for hydraulic fluids, as recommended by the additive manufacturers.

Row | Viscosity Index [1] | Viscosity, mm^2/s at 40°C [1] | Viscosity, mm^2/s at 100°C [1] [mm^2/s] | Pour point, °C [2] | Cloud point, °C [2] | Volatile emissions, 16 hrs [3] [% w/w] | Volatile emissions, 36 hrs [3] [% w/w] | Full solidification observed [4] [h] | Initial residues observed [4] [h] | Vapor loss at solidification [4] [% w/w] | Solubility of 1% w/w Vanlube 7723 ([5]; Alkyl dithiocarbamate, mixed in at 50°C or lower, held longer than a week at room temperature) | Solubility of 1% w/w Irgalube ML605A ([5]; Amine and phosphate derivatives, mixed in at 50°C or lower, held longer than a week at room temperature) | Solubility of 1% w/w Vanlube 7611 M ([5]; Phosphoro dithioate, mixed in at 50°C or lower, held longer than a week at room temperature) | Solubility of 5% w/w Viscoplex 10-310 ([5]; Poly alkyl methacrylate, mixed in at 50°C or lower, held longer than a week at room temperature) | Solubility of 2% w/w Vanlube RI- A ([5]; Soap and ester derivatives, mixed in at 50°C or lower, held longer than a week at room temperature) | Solubility of 1% w/w Cobratec TT-100 ([5]; Tolyl triazole, mixed in at 50°C or lower, held longer than a week at room temperature) | Initial solution appearance ([5]; all tested additives blended in, unchanged after 1 week at room temperature) | Compound | low temperature fluidity [2]
1 | 197 | 22.74 mm^2/s | 5.53 | -57 °C | -36 °C | 5.5 | 10.7 | 320 | 248 | 57 | soluble | soluble | soluble | soluble | soluble | soluble | bright and clear | 1,18-di(2-ethylhexyl) octadec-9-enedioate [26U18] | –
2 | 205 | 28.97 mm^2/s | 6.78 | -51 °C | -51 °C | 3.8 | 10.1 | 325 | 248 | 57 | – | – | – | – | – | – | – | CCCCCCC(CCCC)COC(=O)CCCCCCCC=CCCCCCCCC(=O)OCC(CC)CCCC (stereo not drawn) [4826U18, 1-(2-butyloctyl)-18-(2-ethylhexyl)octadec-9-enedioate] | –
3 | 111 | 10.5 mm^2/s | 2.8 | -57 °C | -38 °C | 2.65 | 4.7 | 553 | 367 | 92 | – | – | – | – | – | – | – | 1,9-di(2-ethylhexyl) nonanedioate [26S9, reference compound] | –
4 | 174 | 28.7 mm^2/s and 28.74 mm^2/s | 6.39 | -51 °C | -51 °C | 3.5 | 10.6 | 324 | 248 | 54 | – | – | – | – | – | – | – | 1,18-di(2-propylheptyl) octadec-9-enedioate [37U18] | –
5 | 194 | 23.9 mm^2/s | 5.71 | -9 °C | -9 °C | – | – | – | – | – | – | – | – | – | – | – | – | CCCCC(CC)COC(=O)CCCCCCCCCCCCCCCCC(=O)OCC(CC)CCCC (stereo not drawn) [26S18, 1,18-di(2-ethylhexyl) octadecanedioate, reference compound] | very problematic low temperature fluidity
6 | 163 | 36.09 mm^2/s | 7.09 | -54 °C | -48 °C | 1.7 | 9.8 | 320 | 248 | 47 | – | – | – | – | – | – | – | 1,18-di(2-butyloctyl) octadec-9-enedioate [48U18] | –
7 | 180 | 22.7 mm^2/s | 5.31 | +9 °C | +9 °C | – | – | – | – | – | – | – | – | – | – | – | – | CCCCCCC(C)OC(=O)CCCCCCCCCCCCCCCCC(=O)OC(C)CCCCCC (stereo not drawn) [17S18, 1,18-di(1-methylheptyl) octadecanedioate, reference compound] | very problematic low temperature fluidity
8 | 175 | 42.54 mm^2/s | 8.3 | -66 °C | -63 °C | 6.7 | 13.4 | 176 | 152 | 39 | – | – | – | – | – | – | – | 1-(3,7,11,15-tetra methyl-2-hexadecenyl) - 18-(2-ethylhexyl) octadec-9-enedioate [2026U18] | –
9 | 202 | 28.8 mm^2/s | 6.7 | -33 °C | -33 °C | 5 | 13.9 | 367 | 344 | 71 | – | – | – | – | – | – | – | 1,18-di(3,3,5-trimethylhexyl) octadec-9-enedioate [9U18] | –
10 | 205 | 21.2 mm^2/s | 5.35 | -21 °C | -18 °C | 0.87 | 7 | 463 | 343 | 63 | – | – | – | – | – | – | – | 1,18-di(1-methylheptyl) octadec-9-enedioate [17U18] | much poorer low temperature fluidity
11 | 204 | 8.68 mm^2/s | 2.85 | > +15 °C | > +15 °C | 9.4 | 25.6 | 344 | 248 | – | – | – | – | – | – | – | – | 1,18-dimethyl octadec-9-enedioate [1U18] | much poorer low temperature fluidity
12 | 196 | 12.93 mm^2/s | 3.73 | -24 °C | -24 °C | 12.6 | 23.7 | 225 | 152 | 66 | – | – | – | – | – | – | – | 1,18-di(3-methylbutyl) octadec-9-enedioate [5U18] | –

Source: patent publication EP3483233A1, “LUBRICANT BASE OIL COMPOSITIONS OF MONO-UNSATURATED DIBASIC ACID ESTERS WITH BRANCHED ALCOHOLS” (ARKEMA FRANCE, priority 2017, dated 2019)
